In ChEMBL document CHEMBL1201862, “PubChem BioAssay data set” (2004):
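Tested at 5 concentrations; 48 h exposure; 96-well plates; endpoints linearly interpolated, else capped at highest concentration. GI50 is the concentration that inhibits growth by half.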 Activity calls are given as the source filed them. Cut-off read from the data, not from the text of the source: active = GI50 up to about 1.1 µM and inactive = higher.

Experiments:
Assay in all cases: NCI-60 cell line screen, 48 h
HCT-15 = system: HCT-15
EKVX = system: EKVX
U-251 = system: U-251
Malme-3M = system: Malme-3M
UO-31 = system: UO-31
A549 = system: A549
UACC-257 = system: UACC-257
HCT-116 = system: HCT-116
SK-MEL-5 = system: SK-MEL-5
OVCAR-5 = system: OVCAR-5
HOP-92 = system: HOP-92
SR = system: SR
TK-10 = system: TK-10
SK-OV-3 = system: SK-OV-3
COLO 205 = system: COLO 205
RXF 393 = system: RXF 393
HT-29 = system: HT-29
KM12 = system: KM12
OVCAR-4 = system: OVCAR-4
MCF7 = system: MCF7

SMILES	GI50 (HCT-15) [µM]	GI50 (EKVX)	GI50 (U-251)	GI50 (Malme-3M)	GI50 (UO-31)	GI50 (A549)	GI50 (UACC-257)	GI50 (HCT-116)	GI50 (SK-MEL-5)	GI50 (OVCAR-5)	GI50 (HOP-92)	GI50 (SR)	GI50 (TK-10)	GI50 (SK-OV-3)	GI50 (COLO 205)	GI50 (RXF 393)	GI50 (HT-29)	GI50 (KM12)	GI50 (OVCAR-4)	GI50 (MCF7)
O=C(O)c1cc2c3c(c1)[C@H]1C=CC[C@H]1CN3CC1CC=CC21 (some centres not stated)	> 100	> 100 µM (inactive)	> 100 µM (inactive)	> 100 µM (inactive)	> 100 µM (inactive)	> 100 µM (inactive)	> 100 µM (inactive)	> 100 µM (inactive)	> 100 µM (inactive)	> 100 µM (inactive)	> 100 µM (inactive)	> 100 µM (inactive)	> 100 µM (inactive)	> 100 µM (inactive)	> 100 µM (inactive)	> 100 µM (inactive)	> 100 µM (inactive)	> 100 µM (inactive)	> 100 µM (inactive)	
CCCCC(C)C1CCC2(C)C=CC(=O)C(C)=C2C1O (configuration not stated)	> 100	> 100 µM (inactive)	> 100 µM (inactive)		> 100 µM (inactive)	> 100 µM (inactive)	> 100 µM (inactive)	> 100 µM (inactive)	> 100 µM (inactive)	> 100 µM (inactive)	> 100 µM (inactive)			> 100 µM (inactive)	> 100 µM (inactive)	> 100 µM (inactive)	> 100 µM (inactive)	> 100 µM (inactive)	> 100 µM (inactive)	> 100 µM (inactive)
CCCCCC1CC(C(C)=O)CN1c1ccc(F)cc1 (configuration not stated)	52.8	50.6 µM (inactive)	41.5 µM (inactive)	54.7 µM (inactive)	37.4 µM (inactive)	51.4 µM (inactive)	30.5 µM (inactive)	27.1 µM (inactive)	19.8 µM (inactive)	> 100 µM (inactive)	27.9 µM (inactive)	> 10 µM (inactive)	98.6 µM (inactive)		48.1 µM (inactive)	41 µM (inactive)	30.8 µM (inactive)	35.6 µM (inactive)		
C#Cc1c(C)c(/C=C/C(C)=C\C(=O)OC)n(C)c1C	92.9	> 100 µM (inactive)	> 100 µM (inactive)	> 100 µM (inactive)	63.4 µM (inactive)	> 100 µM (inactive)	> 100 µM (inactive)			> 100 µM (inactive)	> 100 µM (inactive)		> 100 µM (inactive)	> 100 µM (inactive)	61.2 µM (inactive)		28.6 µM (inactive)	99.1 µM (inactive)	75.9 µM (inactive)	
Nc1nc(Cl)cc(NCCCCCCCCCCCCNc2cc(Cl)nc(N)n2)n1	7.93	12.3 µM (inactive)	0.345 µM (active)	24.4 µM (inactive)	31.7 µM (inactive)	7.45 µM (inactive)	0.515 µM (active)	0.832 µM (active)	0.0861 µM (active)		2.87 µM (inactive)	1.99 µM (inactive)	23.6 µM (inactive)	32.4 µM (inactive)	19.9 µM (inactive)	9.75 µM (inactive)	10.5 µM (inactive)	83 µM (inactive)	4.36 µM (inactive)	
CN(C)CCCCN1CCc2c(n(C)c3ccccc23)C1=O	27.9	36 µM (inactive)		19.2 µM (inactive)	30.9 µM (inactive)	50.6 µM (inactive)	16.5 µM (inactive)	22.4 µM (inactive)	17.7 µM (inactive)		42.6 µM (inactive)			> 63.7 µM (inactive)	18.1 µM (inactive)	42.1 µM (inactive)	18.7 µM (inactive)	44.4 µM (inactive)		36.6 µM (inactive)
CC1(C)CCc2cc3c(cc2O1)OC(C)(C)CC3=O	91.8	93.5 µM (inactive)	90.8 µM (inactive)		40.3 µM (inactive)	75.2 µM (inactive)		71.1 µM (inactive)	21.1 µM (inactive)	46.8 µM (inactive)	17.5 µM (inactive)	57.5 µM (inactive)		> 100 µM (inactive)	> 100 µM (inactive)		35.6 µM (inactive)	> 100 µM (inactive)	62.8 µM (inactive)	
O=C(CCC(=O)Nc1ccccc1C(F)(F)F)N/N=C1\C(=N\NC(=O)CCC(=O)Nc2ccccc2C(F)(F)F)C(c2ccc3c(c2)OCO3)Oc2ccccc21 (configuration not stated)	5.33	9.79 µM (inactive)	4.97 µM (inactive)	> 100 µM (inactive)	5.64 µM (inactive)	7.16 µM (inactive)	> 100 µM (inactive)	5.9 µM (inactive)	7.74 µM (inactive)	> 100 µM (inactive)	17.9 µM (inactive)	3.59 µM (inactive)	> 64.7 µM (inactive)	20.7 µM (inactive)	> 100 µM (inactive)	11.8 µM (inactive)	35.9 µM (inactive)	26.2 µM (inactive)	9.95 µM (inactive)	
CC(=O)OCC1OC(n2cc(F)c(=O)[nH]c2=O)C(NC(=O)OCc2ccccc2)C(OC(C)=O)C1OC(C)=O (configuration not stated)	> 100	> 100 µM (inactive)	> 100 µM (inactive)	> 100 µM (inactive)	> 100 µM (inactive)	> 100 µM (inactive)	> 100 µM (inactive)	> 100 µM (inactive)	> 100 µM (inactive)	> 100 µM (inactive)	> 100 µM (inactive)			> 100 µM (inactive)		> 100 µM (inactive)	> 100 µM (inactive)	> 100 µM (inactive)	> 100 µM (inactive)	> 100 µM (inactive)
O=C1C2=C(c3ccccc31)C(c1ccc(Cl)cc1)NC(S)=N2 (configuration not stated)	18.1	36.9 µM (inactive)	17.5 µM (inactive)	28.2 µM (inactive)	14.9 µM (inactive)	19.4 µM (inactive)	41.8 µM (inactive)	15.1 µM (inactive)	33.5 µM (inactive)	46.7 µM (inactive)	16 µM (inactive)		22.8 µM (inactive)	69.2 µM (inactive)	25.5 µM (inactive)		33.8 µM (inactive)	23.6 µM (inactive)	15.5 µM (inactive)	
CS(=O)(=O)OCC1=C(COS(C)(=O)=O)C(=O)c2c(O)ccc(O)c2C1=O	> 100	> 100 µM (inactive)	> 100 µM (inactive)	> 100 µM (inactive)	> 100 µM (inactive)	> 100 µM (inactive)	> 100 µM (inactive)	> 100 µM (inactive)	> 100 µM (inactive)	> 100 µM (inactive)	> 100 µM (inactive)	> 100 µM (inactive)	> 100 µM (inactive)	> 100 µM (inactive)	> 100 µM (inactive)		> 100 µM (inactive)	> 100 µM (inactive)	> 100 µM (inactive)	
O=C(Nc1cccc(C(F)(F)F)c1)C(=O)C(C(=O)c1ccc(Cl)c(Cl)c1)C1OC(=O)c2ccccc21 (configuration not stated)	35	79.1 µM (inactive)	23.1 µM (inactive)	15.6 µM (inactive)	55.1 µM (inactive)	44.2 µM (inactive)	51.8 µM (inactive)	17.5 µM (inactive)		62.4 µM (inactive)	26.8 µM (inactive)	15.4 µM (inactive)	> 100 µM (inactive)	> 100 µM (inactive)	41.2 µM (inactive)	14.7 µM (inactive)	29.2 µM (inactive)	47.2 µM (inactive)	40 µM (inactive)	
COc1ccc(C23C(=O)c4ccccc4N2O[C@H]2C(=O)N(c4ccccc4)C(=O)[C@H]23)cc1 (some centres not stated)	> 100	> 100 µM (inactive)	> 100 µM (inactive)	> 100 µM (inactive)	> 100 µM (inactive)	> 100 µM (inactive)	> 100 µM (inactive)	> 100 µM (inactive)	> 100 µM (inactive)	> 100 µM (inactive)	> 100 µM (inactive)		> 100 µM (inactive)	> 100 µM (inactive)	> 100 µM (inactive)	> 100 µM (inactive)	> 100 µM (inactive)	> 100 µM (inactive)	> 100 µM (inactive)	
[N-]=[N+]=CC(=O)c1ccccc1C#CCCc1ccccc1	26.1	24.5 µM (inactive)	10.2 µM (inactive)	27.4 µM (inactive)	22.7 µM (inactive)	27.2 µM (inactive)	23.9 µM (inactive)	16.6 µM (inactive)	15.7 µM (inactive)	50.5 µM (inactive)	18.9 µM (inactive)	28.2 µM (inactive)	72.8 µM (inactive)	15.1 µM (inactive)	32 µM (inactive)	30 µM (inactive)	16.6 µM (inactive)	41.2 µM (inactive)	44.2 µM (inactive)	
CCCCCC/C(CC(=O)CCC(=O)NCCc1ccccc1)=N\NC(=O)c1ccc2ccccc2c1O		43.2 µM (inactive)	37.9 µM (inactive)	42.4 µM (inactive)	35.4 µM (inactive)	48.2 µM (inactive)	30.1 µM (inactive)	29.9 µM (inactive)	29.5 µM (inactive)	21.5 µM (inactive)	33 µM (inactive)		64.7 µM (inactive)		54.2 µM (inactive)	50.4 µM (inactive)	55.3 µM (inactive)	35.1 µM (inactive)	37.8 µM (inactive)	
CCCCCCCCCCC(C)CCCCCCC(=O)O (configuration not stated)	> 100	> 100 µM (inactive)	> 100 µM (inactive)	> 100 µM (inactive)	> 100 µM (inactive)	> 100 µM (inactive)	> 100 µM (inactive)	> 100 µM (inactive)	> 100 µM (inactive)	> 100 µM (inactive)	> 100 µM (inactive)	> 100 µM (inactive)	> 100 µM (inactive)	> 100 µM (inactive)	> 100 µM (inactive)	> 100 µM (inactive)	> 100 µM (inactive)	> 100 µM (inactive)	> 100 µM (inactive)	
